This note sets out measurements from publication PMC6045899 (International Journal of Nanomedicine, 2018).

A short description of series [1]: In vivo pharmacokinetics after iv administration in AMI rats. Particulars: plasma concentration–time profile.
Series [2] has as its system PC cells (primary cardiac cells). The series can be described thus: In vitro cytotoxicity, MTT bioassay. The class given is cell-based, Wistar rats. Particulars: 1–200 μM, 24 h.
A further series has as its system AMI rats. Also on record: species or system Sprague Dawley rats. The settings on record: rat, in vivo, 50 mg/kg.

The structures appear in SMILES notation.

Take `Cc1coc2c1C(=O)C(=O)c1c-2ccc2c1CCCC2(C)C` [Free TN, tanshinone IIA]: in series [1], the “time within which cleared from the circulation” value is listed as not above 6 h. Also, the “in vitro cytotoxicity (in words)” value in series [2] was “obvious higher cytotoxicity than the nanocarriers in high concentrations (100 and 200 μM)”. Moreover, the “infarct size (percentage of whole size of the left ventricle)” value in the series on AMI rats was 51%±1.8%.
